Results: US20260174717A1 (Sumitomo Pharma America, Inc., priority 2022, published 2026)
Marks after values point to notes of the source that are not given here.

Key:
Male Swiss mice [1] = experiment: mouse marble burying test; assay type: in vivo; settings: 8 mg/kg, ip; positive control; 30 min before 30 min test
Experimental: (§1) Thirty minutes later mice were individually placed in transparent plastic cages with 5 cm of sawdust on the floor and 25 marbles grouped in the center of the cage. The number of marbles covered by sawdust (2/3rd or more covered) was counted at the end of the 30 min test. Two days later, general locomotor activity was assessed in the activity meter test in the same animals. Mice were placed in an automated activity meter apparatus 30 minutes after dosing and the number of crossings recorded in 5-minute time bins for 30 minutes. Chlorpromazine (4 mg/kg, i.p.) was included as a positive assay control. […] Locomotor activity was analyzed by one-way ANOVA followed by Dunnett's post-hoc analysis. Effects of clobazam in the marble burying and activity meter tests were examined with the Mann-Whitney U test and unpaired student's t-test, respectively.

Male Swiss mice [2] = experiment: mouse activity meter test (general locomotor activity); assay type: in vivo; settings: 4 mg/kg, ip; positive assay control; 30 minutes after dosing, recorded for 30 minutes
Experimental: as §1

Row | SMILES | Number of marbles buried (Mean ± SEM) (Male Swiss mice [1]) | Number of crossings (Mean ± SEM) (Male Swiss mice [2])
1 | CN1C(=O)CC(=O)N(c2ccccc2)c2cc(Cl)ccc21 [Clobazam, clobazam] | 0.5 ± 0.3^a | –
2 | CN(C)CCCN1c2ccccc2Sc2ccc(Cl)cc21 [Chlorpromazine] | – | 3.6 ± 0.7^a
